Test results reported in US4992530A, “Calcitonin-gene-related peptide derivatives” (Toyo Jozo Kabushiki Kaisha, priority 1987, dated 1991).
Ends that are not written are not given here. Peptide text beside a SMILES is read from it.

Experiments:
[1] = Serum phosphate reducing activity in rats (method of Goldenberg et al.); assay type: in vivo; details: 80 μg/kg intravenously, Wistar rats; for prolongation of serum phosphate reducing effect compared with h-CGRP / serum phosphate reducing activity compared with h-CGRP: comparator h-CGRP; for serum phosphate reducing activity compared with h-CGRP: same dose; for reduction of serum phosphate concentration as compared with the control group: tail vein, vs dissolving medium group, FIG. 2
Description: (§1) Serum calcium and serum phosphate reducing activities: Assay method:
(§2) The peptide (1) of the present invention and known h-CGRP (each 80 μg) dissolved in citrate buffer, pH 6.5, containing 0.1% bovine serum albumin (hereinafter designated dissolving medium) (1 ml) were administered intravenously into the tail vein of Wistar rats, body weight 80-90 g, 5-6 rats in one group, at 80 μg/kg. After 30 and 60 mins. of administration, blood samples were collected from the abdominal descending aorta. The serum calcium concentration was measured by atomic adsorption spectrophotometry. Serum phosphate was measured by a method according to Goldenberg et al. [Clin. Chem., 12: 872-882 (1966)].

[2] = Serum calcium reducing activity in rats (atomic absorption spectrophotometry); assay type: in vivo; details: 80 μg/kg intravenously, Wistar rats; for prolongation of serum calcium reducing effect compared with h-CGRP / serum calcium reducing activity compared with h-CGRP: comparator h-CGRP; for serum calcium reducing activity compared with h-CGRP: same dose; for reduction of serum calcium concentration as compared with the control group: tail vein, vs dissolving medium group, FIG. 1
Description: as §1, §2

Row | Compound | duration of serum phosphate reducing activity [1] | prolongation of serum phosphate reducing effect compared with h-CGRP [1] | serum phosphate reducing activity compared with h-CGRP [1] | reduction of serum phosphate concentration as compared with the control group [1] | duration of serum calcium reducing activity [2] | prolongation of serum calcium reducing effect compared with h-CGRP [2] | serum calcium reducing activity compared with h-CGRP [2] | reduction of serum calcium concentration as compared with the control group [2]
1 | CC(C)C[C@H](NC(=O)[C@H](CCCNC(=N)N)NC(=O)[C@H](Cc1c[nH]cn1)NC(=O)[C@@H](NC(=O)[C@@H](NC(=O)[C@@H]1CSSC[C@H](NC(=O)[C@H](C)N)C(=O)N[C@@H](CC(N)=O)C(=O)N[C@@H]([C@@H](C)O)C(=O)N[C@@H](C)C(=O)N[C@@H]([C@@H](C)O)C(=O)N1)C(C)C)[C@@H](C)O)C(=O)N[C@@H](C)C(=O)N[C@@H](CC(=O)O)C(=O)N[C@@H](CC(C)C)C(=O)N[C@@H](CC(C)C)C(=O)N[C@@H](CO)C(=O)N[C@@H](CCCNC(=N)N)C(=O)N[C@@H](CO)C(=O)NCC(=O)NCC(=O)N[C@H](C(=O)NCC(=O)N[C@@H](CCCCN)C(=O)N[C@@H](CC(N)=O)C(=O)N[C@@H](CC(N)=O)C(=O)N[C@@H](Cc1ccccc1)C(=O)N[C@H](C(=O)N1CCC[C@H]1C(=O)N[C@H](C(=O)N[C@@H](CC(N)=O)C(=O)N[C@H](C(=O)NCC(=O)N[C@@H](CO)C(=O)N[C@@H](CCCCN)C(=O)N[C@@H](C)C(=O)N[C@@H](Cc1ccccc1)C(N)=O)C(C)C)[C@@H](C)O)C(C)C)C(C)C [[Asn^3,Asp^14,Gly^23] h-CGRP(1-37)] (HELM PEPTIDE1{A.C.N.T.A.T.C.V.T.H.R.L.A.D.L.L.S.R.S.G.G.V.G.K.N.N.F.V.P.T.N.V.G.S.K.A.F.[am]}$PEPTIDE1,PEPTIDE1,2:R3-7:R3$$$V2.0) | more than 2 hours | prolonged significantly | stronger than those of h-CGRP | 20-30% | more than 2 hours | prolonged significantly | stronger than those of h-CGRP | 20-30%
2 | [Asp^14 ] h-CGRP(1-37) (ACDTATCVTHRLADLLSRSGGVVKNNFVPTNVGSKAF; ends and bridges not checked; cysteine pairing not given here; UniProt P06881 83-119, looked up, variant G14D) [R = H--Ala--NH--, A = Asp, B = Asp, C = Leu, D = Val] | more than 2 hours | prolonged significantly | stronger than those of h-CGRP | 20-30% | more than 2 hours | prolonged significantly | stronger than those of h-CGRP | 20-30%
3 | CC(C)C[C@H](NC(=O)[C@H](CCCNC(=N)N)NC(=O)[C@H](Cc1c[nH]cn1)NC(=O)[C@@H](NC(=O)[C@@H](NC(=O)[C@@H]1CSSC[C@H](NC(=O)[C@H](C)N)C(=O)N[C@@H](CC(N)=O)C(=O)N[C@@H]([C@@H](C)O)C(=O)N[C@@H](C)C(=O)N[C@@H]([C@@H](C)O)C(=O)N1)C(C)C)[C@@H](C)O)C(=O)N[C@@H](C)C(=O)NCC(=O)N[C@@H](Cc1ccccc1)C(=O)N[C@@H](CC(C)C)C(=O)N[C@@H](CO)C(=O)N[C@@H](CCCNC(=N)N)C(=O)N[C@@H](CO)C(=O)NCC(=O)NCC(=O)N[C@H](C(=O)NCC(=O)N[C@@H](CCCCN)C(=O)N[C@@H](CC(N)=O)C(=O)N[C@@H](CC(N)=O)C(=O)N[C@@H](Cc1ccccc1)C(=O)N[C@H](C(=O)N1CCC[C@H]1C(=O)N[C@H](C(=O)N[C@@H](CC(N)=O)C(=O)N[C@H](C(=O)NCC(=O)N[C@@H](CO)C(=O)N[C@@H](CCCCN)C(=O)N[C@@H](C)C(=O)N[C@@H](Cc1ccccc1)C(N)=O)C(C)C)[C@@H](C)O)C(C)C)C(C)C [[Asn^3, Phe^15,Gly^23] h-CGRP(1-37), [Asn^3,Phe^15,Gly^23] h-CGRP(1-37)] (HELM PEPTIDE1{A.C.N.T.A.T.C.V.T.H.R.L.A.G.F.L.S.R.S.G.G.V.G.K.N.N.F.V.P.T.N.V.G.S.K.A.F.[am]}$PEPTIDE1,PEPTIDE1,2:R3-7:R3$$$V2.0) | more than 2 hours | prolonged significantly | stronger than those of h-CGRP | 20-30% | more than 2 hours | prolonged significantly | stronger than those of h-CGRP | 20-30%
4 | CC(C)C[C@H](NC(=O)[C@H](CCCNC(=N)N)NC(=O)[C@H](Cc1c[nH]cn1)NC(=O)[C@@H](NC(=O)[C@@H](NC(=O)[C@@H]1CSSC[C@H](NC(=O)[C@H](C)N)C(=O)N[C@@H](CC(N)=O)C(=O)N[C@@H]([C@@H](C)O)C(=O)N[C@@H](C)C(=O)N[C@@H]([C@@H](C)O)C(=O)N1)C(C)C)[C@@H](C)O)C(=O)N[C@@H](C)C(=O)N[C@@H](CC(=O)O)C(=O)N[C@@H](Cc1ccccc1)C(=O)N[C@@H](CC(C)C)C(=O)N[C@@H](CO)C(=O)N[C@@H](CCCNC(=N)N)C(=O)N[C@@H](CO)C(=O)NCC(=O)NCC(=O)N[C@H](C(=O)N[C@H](C(=O)N[C@@H](CCCCN)C(=O)N[C@@H](CC(N)=O)C(=O)N[C@@H](CC(N)=O)C(=O)N[C@@H](Cc1ccccc1)C(=O)N[C@H](C(=O)N1CCC[C@H]1C(=O)N[C@H](C(=O)N[C@@H](CC(N)=O)C(=O)N[C@H](C(=O)NCC(=O)N[C@@H](CO)C(=O)N[C@@H](CCCCN)C(=O)N[C@@H](C)C(=O)N[C@@H](Cc1ccccc1)C(N)=O)C(C)C)[C@@H](C)O)C(C)C)C(C)C)C(C)C [Asn^3,Asp^14,Phe^15] h-CGRP(1-37), [Asn^3,Asp^14,Phe^15] h-CGRP(1-37)] (HELM PEPTIDE1{A.C.N.T.A.T.C.V.T.H.R.L.A.D.F.L.S.R.S.G.G.V.V.K.N.N.F.V.P.T.N.V.G.S.K.A.F.[am]}$PEPTIDE1,PEPTIDE1,2:R3-7:R3$$$V2.0) | more than 2 hours | prolonged significantly | stronger than those of h-CGRP | 20-30% | more than 2 hours | prolonged significantly | stronger than those of h-CGRP | 20-30%
5 | desalanyl-deamino-[Asp^14 ] h-CGRP(2-37) [desalanyl-deamino-[Asp14] h-CGRP(2-37)] | more than 2 hours | prolonged significantly | stronger than those of h-CGRP | 20-30% | more than 2 hours | prolonged significantly | stronger than those of h-CGRP | 20-30%
